# Results: patent US11905268B2, “Anthranilic acid derivatives and their use in the treatment of human cancers” (UNIVERSITY OF CENTRAL FLORIDA RESEARCH FOUNDATION, INC., priority 2018, dated 2024)
# Read-outs that look alike come from different tables or passages of the source.
# Assays:
# [1] = tested on: CHO cells; assay: Cytotoxicity screen in CHO cells; settings: for IC50 at 48 h: Chinese hamster, CHO K1 cells; for tox (DFMO Assay) / Tox (Ant44): toxic above the stated concentration, CHO cells; for tox (DFMO Assay): listed with DFMO assay; for Tox (Ant44): listed with Ant44 assay
# Description: CHO K1 cells were grown in growth medium to 70% confluency and washed in PBS and trypsinized. […] Cells were spun at 100×g for 1 minute and incubated at 37° C. in a humidified CO2 incubator for 24 hours. […] Cellular ATP content was then assayed by adding 3 uL of ATPLite with a Beckman BioRAPTR FRD dispenser and incubated for 10 minutes at room temperature. Plates were spun at 200×g for 1 minute and read on a Perkin Elmer Viewlux multimode plate reader using luminescence mode. This assay was used for testing dose-response of dry powders.
# CHO K1 cells were grown in growth medium to 70% confluency and washed in PBS and trypsinized. Cells were plated in assay medium at 10000 cells/mL for 200 cells per well using a Thermo Multidrop Combi in 20 uL into a white Greiner plate. Cells were spun at 100×g for 1 minute and incubated at 37° C. in a humidified CO2 incubator for 24 hours. […] This was followed by adding by 10 μL of assay medium to all wells with a Beckman BioRAPTR FRD dispenser. The plates were spun at 200×g for 1 minute and incubated at 37° C. in a humidified 5% CO2 incubator for 48 hours. Cellular ATP content was then assayed by adding 20 μL of ATPLite with a Beckman BioRAPTR FRD dispenser and incubated for 10 min at room temperature. Plates were spun at 200×g for 1 minute and read on a Perkin Elmer Envision for multimode plate reader using luminescence mode. Duplicates were run for each compound concentration, and the curves represent the average of the duplicates as percent viability.
# The final compound concentration was either 20 μM or 10 μg/mL (depending upon the compound source). A successful PTI in Assay 1 would block the uptake of the toxic Ant44 probe and rescue the cells back to >90% relative growth vs an untreated control. It was critical to also evaluate the toxicity of the PTI by itself as a toxic PTI would give a false negative in Assay1 (and a false positive in Assay 2). […] Assay 2 then evaluated the ability of the compound to inhibit the uptake of a rescuing dose of Spermidine (Spd, 1 μM) into DFMO-treated CHO cells.
# [2] = tested on: CHO cells; assay: Ant44 rescue assay in CHO cells (Assay 1); type: cell-based, Chinese hamster; settings: for IC50 / EC50: Cricetulus griseus; for Ant44 EC40: Table 1
# Description: CHO K1 cells were grown in growth medium (RPMI+10% FBS+1×P/S+1% l-glutamine) to 70% confluency, washed in PBS and trypsinized. Cells were plated in assay medium (serum free RPMI+2% FBS+1×l-glutamine+1×P/S+[…] aminoguanidine) at 50000 cells/mL for 200 cells per well in 4 ul using a Thermo Multidrop Combi into a 1536-well white Aurora plate.
# Ant44 is a cytotoxic polyamine, i.e., N^1-(9-anthracenyl)-homospermidine. A non-toxic PTI compound would block entry or intracellular trafficking of the Ant44 toxin and rescue the cells back to high viability. Therefore, this screen tested for compounds which rescued cells from Ant44 toxicity. […] This was followed by adding 10 uL of 10 uM Ant44 (FAC 2 uM) in assay medium with a Beckman BioRAPTR FRD dispenser or 10 uL of cells added in assay medium (positive control).
# [3] = tested on: DFMO treated Chinese hamster ovary (CHO) cells; assay: DFMO/spermidine rescue assay in CHO cells (Assay 2); type: cell-based; settings: for Active in DFMO assay?: Table 3, in CHO; for DFMO/CHO IC50: Table 5B
# Description: In the reconfirmation assay compounds were run in quadruplicate. […] A PTI compound is expected to block the entry or disrupt the intracellular trafficking of spermidine and inhibit the ability of spermidine to rescue the growth or viability of DFMO treated cells.
# DFMO/Spermidine assay Here cells were treated with an inhibitor of polyamine biosynthesis (DFMO) and rescued back to high viability by the presence of exogenous polyamine (spermidine). Putative PTI compounds were screened for their ability to block the entry or intracellular trafficking of exogenous spermidine (or otherwise disrupt the intracellular trafficking of spermidine) by measuring cell viability in the presence of DFMO+spermidine+PTI compound. […] This was followed by adding 10 μL of […] and 5 μM spermidine (FAC 5 mM DFMO and 1 μM spermidine) in assay medium with a Beckman BioRAPTR FRD dispenser or 10 μL of 5 mM DFMO added in assay medium (positive control). […] A PTI compound is expected to block the entry or disrupt the intracellular trafficking of spermidine and inhibit the ability of spermidine to rescue the growth or viability of DFMO treated cells Cytotoxicity
# [4] = CHO, Table 7, read-out: SAR IC50 Ant44 assay
# [5] = Cricetulus griseus, CHO, Table 7, read-out: SAR IC50 DFMO assay
# [6] = Cricetulus griseus, Table 1 HTS top hits, CHO cells, read-out: DFMO Assay IC50
# [7] = Table 1 HTS top hits, CHO cells
# [8] = Table 1 HTS top hits, CHO cells, read-out: Ant44 EC50
# [9] = CHO, Table 3, read-out: Ant44 rescue EC50 CHO
# [10] = Table 5B, CHO cells, read-out: Ant44 IC50
SMILES,IC50 at 48 h [1] [µM],"IC50 [2, 4] [µM]","IC50 [3, 5] [µM]",tox (DFMO Assay) [1],"IC50 [3, 6] [µM]",Tox (Ant44) [1],"EC50 [2, 8] [µM]",also measured
"COc1ccc(S(=O)(=O)Nc2ccc(N3CCN(c4cc(Cl)ccc4C)CC3)cc2C(=O)O)cc1 [SBI-0801326, 5-(4-(5-chloro-2-methylphenyl)piperazin-1-yl)-2-(4-methoxyphenylsulfonamido)benzoic acid]",> 40,> 40,> 40,–,–,–,–,–
CCOC(=O)N1CCN(c2ccc(NC(=O)c3ccc(OC)cc3)c(C(=O)O)c2)CC1 [SBI-0800692],34,> 40,> 40,"SBI- 0800692.0001 (IC50 ~20, tox >20) μM",~20,–,–,Ant44 EC40 ([2]; CHO cells): SBI- 0800692.0001 (EC40 at 31) μM
"COC(=O)c1cc(CN2CCN(c3ccccn3)CC2)ccc1NC(=O)c1ccccc1OC [SBI-0814422, Methyl 2-(2-methoxybenzamido)-5-((4-(pyridin-2-yl)piperazin-1-yl)methyl)benzoate]",> 20,> 20,> 20,–,–,–,–,–
CCN(CC)C(=O)CN1CCN(c2ccc(NC(=O)c3ccc(OC)cc3)c(C(=O)O)c2)CC1 [SBI-0800690],28,> 40,> 40,"SBI- 0800690.0001 (IC50 ~20, tox >20) μM",~20,–,–,"Ant44 EC50 [2, 7]: SBI- 0800690.0001 No effect"
COc1ccc(C(=O)Nc2ccc(N3CCN(c4ccccc4Cl)CC3)cc2C(=O)O)cc1 [SBI-0800682],28,> 40,27,> 10 µM,10 to 15,> 20 µM,–,Ant44 EC40 ([2]; CHO cells): ~15 µM
"COc1ccccc1C(=O)Nc1ccc(N2CCN(CCc3ccccc3)CC2)cc1C(=O)O [SBI-0814415, 2-(2-methoxybenzamido)-5-(4-phenethylpiperazin-1-yl)benzoic acid]",> 40,> 40,> 40,–,–,–,–,–
"COc1ccccc1C(=O)Nc1ccc(N2CCN(CCCc3ccccc3)CC2)cc1C(=O)O [SBI-0814416, 2-(2-methoxybenzamido)-5-(4-(3-phenylpropyl)piperazin-1-yl)benzoic acid]",> 40,> 40,> 40,–,–,–,–,–
Cc1ccc(CC(=O)Nc2ccc(N3CCN(c4ccccc4Cl)CC3)cc2C(=O)O)cc1 [SBI-0800675],> 40,16,32,no tox,> 25,SBI- 0800675.0001 (31 EC50) Tox >31 μM,31,–
COc1ccccc1N1CCN(c2ccc(NC(=O)c3ccccc3Cl)c(C(=O)O)c2)CC1 [SBI-0800670],36,16,–,> 15 µM,10 to 15,SBI- 0800670.0001 (20 EC50) Tox >20 μM,20,–
"COc1ccccc1C(=O)Nc1ccc(N2CCN(c3ccccn3)CC2)cc1C(=O)O [SBI-0801308, 2-(2-methoxybenzamido)-5-(4-(pyridin-2-yl)piperazin-1-yl)benzoic acid]",21,4,> 40,> 20 µM,10 to 20,> 31 µM,5 to 10,"CHO MTD EC50 ([1]; hamster): (22) uM; MTD CHO ([1]; hamster): ~10 µM; EC50 [2, 9]: 10 µM; IC50 [2, 10]: 3.6 µM; Active in DFMO assay? [3]: No in CHO; DFMO/CHO IC50 [3]: trace"
"COc1ccccc1C(=O)Nc1ccc(N2CCN(C(=O)c3ccccn3)CC2)cc1C(=O)O [SBI-0814424, 2-(2-methoxybenzamido)-5-(4-picolinoylpiperazin-1-yl)benzoic acid]",> 40,> 40,> 40,–,–,–,–,–
"COC(=O)c1cc(N2CCN(c3cc(Cl)ccc3C)CC2)ccc1NC(=O)c1ccccc1OC [SBI-0801724, methyl 5-(4-(5-chloro-2-methylphenyl)piperazin-1-yl)-2-(2-methoxybenzamido)benzoate]",> 40,> 40,> 40,–,–,–,–,–
CCOc1ccccc1N1CCN(c2ccc(NC(=O)c3ccc(OC)cc3)c(C(=O)O)c2)CC1 [SBI-0800683],37,> 40,20,"SBI- 0800683.0001 (IC50 ~20 μM, tox >20 μM)",~20,SBI- 0800683.0001 (20 μM EC50) Tox >20 μM,20,"CHO MTD ([1]; hamster): 20 µM; CHO MTD EC50 ([1]; hamster): (37) μM; EC50 ([2]; CHO, Table 2, Active in Ant44 assay?, read-out: Ant44 assay EC50 in CHO): ~20 µM; Active in Ant44 assay? ([2]; Table 2, in CHO): Yes; Ant44 IC50 ([2]; Table 4B, CHO cells): trace; EC50 ([3]; Cricetulus griseus, CHO, Table 2): ~20 µM; IC50 ([3]; Cricetulus griseus, CHO, Table 4B, read-out: DFMO/CHO IC50): 20 µM"
COc1ccc(C(=O)Nc2ccc(N3CCCN(c4ncccn4)CC3)cc2C(=O)O)cc1 [SBI-0800691],> 40,12,> 40,No tox,–,No tox,10 to 15,"MTD CHO ([1]; hamster): >32 µM; activity in Ant44 assay ([2]; CHO cells): robust Ant44 uptake inhibition activity; EC50 [2, 9]: ~11 µM; IC50 [2, 10]: 12 µM; DFMO Assay IC50 [3, 7]: No effect; Active in DFMO assay? [3]: No in CHO; DFMO/CHO IC50 [3]: trace"
"COC(=O)c1cc(N2CCN(c3cc(Cl)ccc3C)CC2)ccc1NC(=O)c1ccc(OC)cc1 [SBI-0801722, methyl 5-(4-(5-chloro-2-methylphenyl)piperazin-1-yl)-2-(4-methoxybenzamido)benzoate]",> 40,> 40,> 40,–,–,–,–,–
